The values that follow come from US20250113823A1, “Arthropod Control Compositions” (priority 2022, published 2025).

The experiment concerns Aedes aegypti. In words: Warm Body assay, mosquito landings on treated warm body. As to conditions: for pest or weed control at 16 µg/mL / pest or weed control at 400 µg/mL / pest or weed control at 10000 µg/mL / pest or weed control at 1 % / pest or weed control at 0.0016 % / pest or weed control at 3.2 µg/mL / pest or weed control at 35.7 µg/mL / pest or weed control at 80 µg/mL / pest or weed control at 178 µg/mL / pest or weed control at 890 µg/mL / pest or weed control at 2000 µg/mL / pest or weed control at 0.04 %: Aedes aegypti; for pest or weed control at 16 µg/mL / pest or weed control at 400 µg/mL / pest or weed control at 10000 µg/mL / pest or weed control at 3.2 µg/mL / pest or weed control at 35.7 µg/mL / pest or weed control at 80 µg/mL / pest or weed control at 178 µg/mL / pest or weed control at 890 µg/mL / pest or weed control at 2000 µg/mL: read-out: Percentage of repellence of mosquitoes Aedes aegypti landing on the warm body; for pest or weed control at 1 % / pest or weed control at 0.04 %: read-out: repellence; for pest or weed control at 0.0016 %: read-out: reduce the number of mosquito landings; for pest or weed control at 3.2 µg/mL: 0.0032 mg/mL (Table 2); for pest or weed control at 35.7 µg/mL: 0.0357 mg/mL (Table 2); for pest or weed control at 80 µg/mL: 0.08 mg/mL (Table 2); for pest or weed control at 178 µg/mL: 0.178 mg/mL (Table 2); for pest or weed control at 890 µg/mL: 0.89 mg/mL (Table 2); for pest or weed control at 2000 µg/mL: 2 mg/mL (Table 2). The class given is in vivo. How it is done: The arthropod controlling effect according to the present invention is determined on mosquitoes using an adapted Warm Body assay as defined in Kröber T, Kessler S, Frei J, Bourquin M, Guerin PM. An in vitro assay for testing mosquito controlling compounds employing a warm body and carbon dioxide as a behavioral activator. J Am Mosq Control Assoc. 2010; 26: 381-386. Further information is provided in the accompanying examples
The controlling effect, repellence & spatial repellence, according to the present invention is determined by testing the Warm Body assay against the yellow fever mosquito, Aedes aegypti Rockefeller strain. […] Observations of controlling efficacy were made on host-seeking females of uniform age, 5 to 10 days old selected as mentioned in the publication mentioned hereinabove. Tested hungry females had access to 10% sugar solution but were not blood-fed. Further information is provided in the accompanying examples.
The published protocol has been adapted in not manually counting the landing mosquitoes but automatically using an automatic counting software, the switch from Anopheles gambiae to A. aegypti led to a decrease of mosquitoes' number placed in the tested cage due to the size difference (i.e. 30 mosquitoes instead of 50) and to an increase of lighting as A. aegypti is a diurnal mosquitoes (i.e. 150 lux instead of 4 lux). Further information is provided in the accompanying examples. […]
The controlling effect according to the present invention was assessed using an adapted Warm Body assay as defined in Kröber T, Kessler S, Frei J, Bourquin M, Guerin P M. 2010. J Am Mosq Control Assoc. 26: 381-386. In this in-vitro assay the number of mosquito landing on a warm body, simulating an attractive host treated with the tested stimuli, was measured in order to assess the repellence effect.
The published protocol has been adapted as the switch from Anopheles gambiae to Aedes aegypti led to a decrease of mosquitoes placed in the tested cage due to the size difference (i.e. 30 mosquitoes instead of 50) and to an increase of lighting since A. aegypti is a diurnal mosquitoes (i.e. 150 lux instead of 4 lux).
On the sandblasted glass Petri dish covering the warm body (28.3 cm^2), 100 μL of the compounds diluted at different concentrations in ethanol was applied. The number of mosquito landing on the warm body was counted for each stimulus and pure ethanol (solvent) as control.

The mark [1] stands for this setting: highest tested concentration, 1% (Table 3).
Setting [2] is: lowest concentration of 0.0016% (Table 3).
The mark [3] stands for this setting: intermediate concentration of 0.04% (Table 3).

Where two headings read alike, the source gives them in different places. Where only a bound is given, the exact number is not on record here.

With `COc1cc(C(C)OC)ccc1O` (centres unmarked) [compound 1480, 2-methoxy-4-(1-methoxyethyl)phenol], for the setting “0.016 mg/mL (Table 3)”, the pest or weed control at 16 µg/mL was 66%. Also, for the setting “0.4 mg/mL (Table 3)”, the pest or weed control at 400 µg/mL came to 61%. For the same compound, the pest or weed control at 10000 µg/mL (10 mg/mL (Table 3)) worked out at 100%. Also, under setting [1], the pest or weed control at 1 % was over 90% and the “mosquito landing within the two minutes of experiments” value is “protect the attractive stimulus for any mosquito landing”. Besides, under setting [2], the pest or weed control at 0.0016 % was over 50%.
With `CC=Cc1cc(OC)c(O)c(OC)c1` [compound 1127, 2,6-dimethoxy-4-prop-1-enylphenol], the pest or weed control at 3.2 µg/mL turned out to be 17%, the pest or weed control at 35.7 µg/mL stood at 0%, the pest or weed control at 80 µg/mL was 0% and the pest or weed control at 178 µg/mL amounted to 30%. The pest or weed control at 890 µg/mL came to 59% and the pest or weed control at 2000 µg/mL amounted to 100%. For the same compound, the pest or weed control at 16 µg/mL (0.016 mg/mL (Table 2)) was determined as 1%. Further, the pest or weed control at 400 µg/mL (0.4 mg/mL (Table 2)) is 42%. The pest or weed control at 10000 µg/mL (10 mg/mL (Table 2)) was 96%.
Consider `COc1cccc(OC)c1O` [compound 2244, 2,6-dimethoxyphenol], for which the pest or weed control at 16 µg/mL (0.016 mg/mL (Table 3)) is 44%. For the same compound, the pest or weed control at 400 µg/mL (0.4 mg/mL (Table 3)) is 59%. The pest or weed control at 10000 µg/mL (10 mg/mL (Table 3)) is 85%.
Turning to `CCc1cc(OC)c(O)c(OC)c1` [compound 2240, 4-ethyl-2,6-dimethoxyphenol], the pest or weed control at 16 µg/mL (0.016 mg/mL (Table 3)) was 0%. Besides, where the note is “0.4 mg/mL (Table 3)”, the pest or weed control at 400 µg/mL was found to be 47%. Besides, where the note is “10 mg/mL (Table 3)”, the pest or weed control at 10000 µg/mL worked out at 94%. Under setting [1], the pest or weed control at 1 % was over 90%.
Consider `COc1ccc(C(C)=O)c(OC)c1OC` [compound 2269, 1-(2,3,4-trimethoxyphenyl)ethanone], for which, where the note is “0.016 mg/mL (Table 3)”, the pest or weed control at 16 µg/mL was determined as 18%. For the same compound, the pest or weed control at 400 µg/mL (0.4 mg/mL (Table 3)) is 70%. For the same compound, where the note is “10 mg/mL (Table 3)”, the pest or weed control at 10000 µg/mL stood at 100%. Moreover, under setting [1], the pest or weed control at 1 % is over 90% and the “mosquito landing within the two minutes of experiments” value is given as “protect the attractive stimulus for any mosquito landing”.
Consider `COc1ccc(O)c(OC)c1OC` [compound 1204, 2,3,4-trimethoxyphenol], for which the pest or weed control at 16 µg/mL (0.016 mg/mL (Table 3)) came to 46%. For the same compound, the pest or weed control at 400 µg/mL (0.4 mg/mL (Table 3)) stood at 83%. Also, where the note is “10 mg/mL (Table 3)”, the pest or weed control at 10000 µg/mL was 92%. The pest or weed control at 1 % under setting [1] is over 90%. Also, under setting [3], the pest or weed control at 0.04 % is over 75%.
Regarding `CC=Cc1cc(OC)ccc1OC` [compound 1196, 1,4-dimethoxy-2-[1-propen-1-yl]benzene], the pest or weed control at 16 µg/mL stood at 57%, the pest or weed control at 400 µg/mL stood at 74%, the pest or weed control at 10000 µg/mL turned out to be 86% and the pest or weed control at 0.0016 % was over 50%.
Turning to `COc1cc(C(=O)O)cc(OC)c1O` [compound 2270, 4-hydroxy-3,5-dimethoxybenzoic acid], the pest or weed control at 16 µg/mL (0.016 mg/mL (Table 3)) came out at 67%. The pest or weed control at 400 µg/mL (0.4 mg/mL (Table 3)) came out at 62%. Moreover, where the note is “10 mg/mL (Table 3)”, the pest or weed control at 10000 µg/mL amounted to 87%. Further, the pest or weed control at 0.0016 % under setting [2] was over 50%.
As for `COc1cc(C=O)cc(OC)c1OC` [compound 2268, 3,4,5-trimethoxybenzaldehyde], the pest or weed control at 16 µg/mL amounted to 59%, the pest or weed control at 400 µg/mL stood at 88%, the pest or weed control at 10000 µg/mL amounted to 95% and the pest or weed control at 0.0016 % was over 50%. Besides, the pest or weed control at 0.04 % was over 75% and the pest or weed control at 1 % is over 90%.
Turning to `COc1cc(C2CC=C(C)CO2)ccc1O` (centres unmarked) [compound 1478, 2-methoxy-4-(5-methyl-3,6-dihydro-2H-pyran-2-yl)phenol], the pest or weed control at 16 µg/mL (0.016 mg/mL (Table 3)) is 0%. For the same compound, the pest or weed control at 400 µg/mL (0.4 mg/mL (Table 3)) worked out at 76%. Besides, the pest or weed control at 10000 µg/mL (10 mg/mL (Table 3)) is 73%. In addition, the pest or weed control at 0.04 % under setting [3] is over 75%.
On to `CCCc1ccc2c(c1)OCC(=O)CO2` [compound 465, 7-propyl-1,5-benzoodioxepin-3-one], for which the “Percentage of repellence of mosquitoes Aedes aegypti landing on the warm body” value by setting is: (0.016 mg/mL (Table 3)) 4%; (0.4 mg/mL (Table 3)) 36%; (10 mg/mL (Table 3)) 87%.
`COc1cc(C=CC=O)ccc1O` [compound 1527, 3-(4-hydroxy-3-methoxyphenyl)pro-2-enal]: the “Percentage of repellence of mosquitoes Aedes aegypti landing on the warm body” value by setting is: (0.016 mg/mL (Table 3)) 69%; (0.4 mg/mL (Table 3)) 76%; (10 mg/mL (Table 3)) 71%.
`COc1cc(CC=O)ccc1O` [compound 1467, 2-(4-hydroxy-3-methoxyphenyl)acetaldehyde]: the pest or weed control at 16 µg/mL (0.016 mg/mL (Table 3)) was 29%. Further, for the setting “0.4 mg/mL (Table 3)”, the pest or weed control at 400 µg/mL was found to be 84%. The pest or weed control at 10000 µg/mL (10 mg/mL (Table 3)) turned out to be 79%. Besides, the pest or weed control at 0.04 % under setting [3] was over 75%.
Turning to `CCOc1cc(C)ccc1O` [compound 1303, 2-ethoxy-4-methylphenol], the pest or weed control at 16 µg/mL (0.016 mg/mL (Table 3)) was found to be 16%. For the same compound, the pest or weed control at 400 µg/mL (0.4 mg/mL (Table 3)) was 21%. Moreover, the pest or weed control at 10000 µg/mL (10 mg/mL (Table 3)) was 100%. Under setting [1], the pest or weed control at 1 % was over 90% and the “mosquito landing within the two minutes of experiments” value is on record as “protect the attractive stimulus for any mosquito landing”.
Take `COc1cccc(CO)c1OC` [compound 2263, (2,3-dimethoxyphenyl)methanol]: the pest or weed control at 16 µg/mL (0.016 mg/mL (Table 3)) amounted to 52%. Also, for the setting “0.4 mg/mL (Table 3)”, the pest or weed control at 400 µg/mL was found to be 96%. The pest or weed control at 10000 µg/mL (10 mg/mL (Table 3)) came out at 97%. For the same compound, the pest or weed control at 1 % under setting [1] was over 90%. Moreover, the pest or weed control at 0.04 % under setting [3] was over 75%. Also, the pest or weed control at 0.0016 % under setting [2] is over 50%.
As for `COc1cccc(OC)c1OC` [compound 1822, 1,2,3-trimethoxybenzene], for the setting “0.016 mg/mL (Table 3)”, the pest or weed control at 16 µg/mL is 54%. Besides, for the setting “0.4 mg/mL (Table 3)”, the pest or weed control at 400 µg/mL was found to be 39%. Besides, the pest or weed control at 10000 µg/mL (10 mg/mL (Table 3)) was 100%. Besides, under setting [1], the pest or weed control at 1 % was over 90% and the “mosquito landing within the two minutes of experiments” value is listed as “protect the attractive stimulus for any mosquito landing”. Under setting [2], the pest or weed control at 0.0016 % is over 50%.
As to `COc1cc(C=CC(=O)O)cc(OC)c1OC` [compound 1566, 3-(3,4,5-trimethoxyphenyl)prop-2-enoic acid], the pest or weed control at 3.2 µg/mL is 0%, the pest or weed control at 35.7 µg/mL is 22%, the pest or weed control at 80 µg/mL was 0% and the pest or weed control at 178 µg/mL was determined as 30%. Moreover, the pest or weed control at 890 µg/mL came out at 69% and the pest or weed control at 2000 µg/mL is 57%. In addition, for the setting “0.016 mg/mL (Table 2)”, the pest or weed control at 16 µg/mL was determined as 20%. Also, the pest or weed control at 400 µg/mL (0.4 mg/mL (Table 2)) was 81%. Also, the pest or weed control at 10000 µg/mL (10 mg/mL (Table 2)) amounted to 96%.
